Measured values taken from the NIST ThermoML archive (doi:10.1021/je900050z).

Conditions: Liquid

CCC(C)(C)O [2-methylbutan-2-ol]
Conditions | vapor or sublimation pressure [kPa]
303.29 K | 2.81
303.47 K | 2.85
304.67 K | 3.16
305.75 K | 3.4
305.9 K | 3.43
308.35 K | 4.08
309.12 K | 4.31
309.86 K | 4.55
310.61 K | 4.8
311.64 K | 5.15
312.47 K | 5.43
313.38 K | 5.77
314.17 K | 6.08
315.44 K | 6.59
317.09 K | 7.31
318.64 K | 7.99
319.37 K | 8.36
319.86 K | 8.61
320.32 K | 8.84
321.32 K | 9.36
322.44 K | 9.99
323.15 K | 10.41
323.27 K | 10.49
324.11 K | 11.03
324.91 K | 11.51
325.71 K | 12.03
326.45 K | 12.55
327.18 K | 13.05
327.62 K | 13.36
328.41 K | 13.97
329.33 K | 14.65
330.15 K | 15.31
330.98 K | 15.97
331.8 K | 16.67
332.46 K | 17.29
333.15 K | 17.87
333.26 K | 17.99
333.99 K | 18.65
334.69 K | 19.32
335.45 K | 20.03
336.05 K | 20.67
336.68 K | 21.31
337.31 K | 21.96
337.97 K | 22.63
338.69 K | 23.47
339.15 K | 23.97
339.68 K | 24.67
340.31 K | 25.35
340.83 K | 26
341.39 K | 26.67
341.9 K | 27.33
342.4 K | 27.97
342.92 K | 28.67
343.15 K | 28.95
343.42 K | 29.31
343.94 K | 30.01
344.47 K | 30.67
344.91 K | 31.35
345.39 K | 32.07
345.78 K | 32.67
346.35 K | 33.48
347.18 K | 34.67
347.57 K | 35.32
348.07 K | 36.07
348.49 K | 36.71
348.88 K | 37.36
349.27 K | 38.01
349.64 K | 38.64
350.08 K | 39.32
350.49 K | 39.96
350.83 K | 40.64
351.2 K | 41.31
351.67 K | 42.08
351.95 K | 42.65
352.3 K | 43.35
352.73 K | 44
353.02 K | 44.65
353.15 K | 44.87
353.44 K | 45.35
353.73 K | 45.97
354.1 K | 46.63
354.41 K | 47.28
354.72 K | 47.95
355.11 K | 48.65
355.43 K | 49.31
355.74 K | 49.95
356.09 K | 50.75
356.45 K | 51.36
356.69 K | 52
356.99 K | 52.61
357.35 K | 53.32
357.67 K | 54.03
357.96 K | 54.67
358.25 K | 55.35
358.47 K | 55.95
358.85 K | 56.63
359.15 K | 57.33
359.48 K | 58
359.68 K | 58.59
360.01 K | 59.27
360.21 K | 59.95
360.53 K | 60.59
360.83 K | 61.27
361.11 K | 61.99
361.4 K | 62.61
361.72 K | 63.35
362.01 K | 64.04
362.24 K | 64.67
362.54 K | 65.35
362.84 K | 66
363.07 K | 66.71
363.56 K | 67.92
364.15 K | 69.21
364.62 K | 70.64
365.21 K | 71.99
365.73 K | 73.37
366.16 K | 74.75
366.67 K | 76.05
367.11 K | 77.28
367.53 K | 78.63
368.02 K | 79.97
368.44 K | 81.28
368.83 K | 82.53
369.31 K | 83.93
369.73 K | 85.28
370.15 K | 86.63
370.56 K | 87.97
370.99 K | 89.39
371.39 K | 90.76
371.77 K | 91.99
372.16 K | 93.31
372.56 K | 94.67
372.95 K | 95.99
373.34 K | 97.39
373.73 K | 98.71
